Measured values reported in patent US8846699B2, “Quinazoline derivatives as a multiplex inhibitor and method for the preparation thereof” (Hanmi Pharm. Co., Ltd., priority 2005, dated 2014).

Assays:
EGFR1 (HER-1) = EGFR1 (HER-1) (Homo sapiens (Human), UniProt P00533); assay: EGFR1 (HER-1) enzyme assay, fluorescence polarization; type: biochemical; conditions: 100 μM ATP, poly(Glu, Tyr) substrate
[1] = test system: skin cancer cell line, A431; assay: Inhibitory effect on growth of cancer cell line A431, SRB; type: cell-based; conditions: overexpressed EGFR1 (HER-1)
Method in brief: (§1)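 Cells were cultured in DMEM with 10% FBS. Compounds were applied at 10 μM with 10-fold serial dilution to 10^−4, DMSO <1%, for 72 h at 37 °C. Cells were then TCA-fixed and stained with 0.4% SRB, and absorbance was read at 570 nm after solubilisation in 10 mM Tris base.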

[2] = test system: Human Umbilical Vein Endothelial Cell (HUVEC); assay: Inhibitory effect on growth of human umbilical vein endothelial cell (HUVEC), MTS; type: cell-based; conditions: 10 ng/ml VEGF, absorbance 490 nm
[3] = test system: breast cancer cell line, SK-Br3; assay: Inhibitory effect on growth of cancer cell line SK-Br3, SRB; type: cell-based; conditions: overexpressed EGFR2 (HER-2)
Method in brief: as §1

VEGFR2 (KDR) = VEGFR2 (KDR) (Homo sapiens (Human), UniProt P35968); assay: VEGFR2 (KDR) enzyme assay, fluorescence polarization; type: biochemical; conditions: 5 μM ATP, poly(Glu, Tyr) substrate
Method in brief: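 Autophosphorylation read by fluorescence polarization: VEGFR2 (Proquinase) at 200 ng/10 μl with 5 μM ATP and 10 ng/ml poly(Glu,Tyr) 4:1, in 20 mM HEPES pH 7.4, 5 mM MgCl2, 2 mM MnCl2, 50 μM Na3VO4. Reaction 1 h at room temperature, EDTA stop, then anti-phosphotyrosine antibody/tracer for 30 min in the dark.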

[4] = test system: colon and rectal cancer cell line, SW-620; assay: Inhibitory effect on growth of cancer cell line SW-620, SRB; type: cell-based; conditions: not having overexpressed EGFR and EGFR2
Method in brief: as §1

Sequence of EGFR1 (HER-1) (P00533 25-1210): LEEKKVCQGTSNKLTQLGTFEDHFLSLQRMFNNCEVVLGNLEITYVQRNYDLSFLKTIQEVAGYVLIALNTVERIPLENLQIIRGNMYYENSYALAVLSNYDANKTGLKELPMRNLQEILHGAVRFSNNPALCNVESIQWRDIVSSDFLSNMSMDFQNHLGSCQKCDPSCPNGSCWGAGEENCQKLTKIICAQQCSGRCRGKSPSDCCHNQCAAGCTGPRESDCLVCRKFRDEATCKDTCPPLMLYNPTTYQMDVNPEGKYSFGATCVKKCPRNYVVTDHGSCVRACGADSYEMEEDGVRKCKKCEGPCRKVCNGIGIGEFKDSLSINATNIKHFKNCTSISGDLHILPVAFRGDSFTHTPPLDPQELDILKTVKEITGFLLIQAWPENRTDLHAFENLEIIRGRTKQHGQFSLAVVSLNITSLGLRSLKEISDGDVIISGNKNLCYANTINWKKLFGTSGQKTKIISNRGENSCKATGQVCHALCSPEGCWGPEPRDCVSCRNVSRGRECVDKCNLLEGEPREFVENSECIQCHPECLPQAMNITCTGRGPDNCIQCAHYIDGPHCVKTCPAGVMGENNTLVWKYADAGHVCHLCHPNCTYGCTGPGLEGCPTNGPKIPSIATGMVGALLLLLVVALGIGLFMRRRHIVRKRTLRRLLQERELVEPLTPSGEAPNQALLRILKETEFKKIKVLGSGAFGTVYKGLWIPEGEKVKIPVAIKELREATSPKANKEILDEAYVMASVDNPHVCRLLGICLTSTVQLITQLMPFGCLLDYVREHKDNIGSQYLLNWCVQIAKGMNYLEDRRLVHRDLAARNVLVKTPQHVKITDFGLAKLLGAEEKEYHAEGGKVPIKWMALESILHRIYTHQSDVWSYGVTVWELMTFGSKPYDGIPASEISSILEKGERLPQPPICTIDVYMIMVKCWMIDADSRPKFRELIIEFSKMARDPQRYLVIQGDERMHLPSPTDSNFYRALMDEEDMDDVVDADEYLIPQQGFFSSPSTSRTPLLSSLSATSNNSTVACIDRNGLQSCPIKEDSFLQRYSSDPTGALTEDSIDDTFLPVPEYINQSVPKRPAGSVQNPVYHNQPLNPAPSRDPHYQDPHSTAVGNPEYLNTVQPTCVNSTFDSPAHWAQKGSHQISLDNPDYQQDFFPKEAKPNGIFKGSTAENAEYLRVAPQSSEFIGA
Sequence of VEGFR2 (KDR) (P35968 20-1356): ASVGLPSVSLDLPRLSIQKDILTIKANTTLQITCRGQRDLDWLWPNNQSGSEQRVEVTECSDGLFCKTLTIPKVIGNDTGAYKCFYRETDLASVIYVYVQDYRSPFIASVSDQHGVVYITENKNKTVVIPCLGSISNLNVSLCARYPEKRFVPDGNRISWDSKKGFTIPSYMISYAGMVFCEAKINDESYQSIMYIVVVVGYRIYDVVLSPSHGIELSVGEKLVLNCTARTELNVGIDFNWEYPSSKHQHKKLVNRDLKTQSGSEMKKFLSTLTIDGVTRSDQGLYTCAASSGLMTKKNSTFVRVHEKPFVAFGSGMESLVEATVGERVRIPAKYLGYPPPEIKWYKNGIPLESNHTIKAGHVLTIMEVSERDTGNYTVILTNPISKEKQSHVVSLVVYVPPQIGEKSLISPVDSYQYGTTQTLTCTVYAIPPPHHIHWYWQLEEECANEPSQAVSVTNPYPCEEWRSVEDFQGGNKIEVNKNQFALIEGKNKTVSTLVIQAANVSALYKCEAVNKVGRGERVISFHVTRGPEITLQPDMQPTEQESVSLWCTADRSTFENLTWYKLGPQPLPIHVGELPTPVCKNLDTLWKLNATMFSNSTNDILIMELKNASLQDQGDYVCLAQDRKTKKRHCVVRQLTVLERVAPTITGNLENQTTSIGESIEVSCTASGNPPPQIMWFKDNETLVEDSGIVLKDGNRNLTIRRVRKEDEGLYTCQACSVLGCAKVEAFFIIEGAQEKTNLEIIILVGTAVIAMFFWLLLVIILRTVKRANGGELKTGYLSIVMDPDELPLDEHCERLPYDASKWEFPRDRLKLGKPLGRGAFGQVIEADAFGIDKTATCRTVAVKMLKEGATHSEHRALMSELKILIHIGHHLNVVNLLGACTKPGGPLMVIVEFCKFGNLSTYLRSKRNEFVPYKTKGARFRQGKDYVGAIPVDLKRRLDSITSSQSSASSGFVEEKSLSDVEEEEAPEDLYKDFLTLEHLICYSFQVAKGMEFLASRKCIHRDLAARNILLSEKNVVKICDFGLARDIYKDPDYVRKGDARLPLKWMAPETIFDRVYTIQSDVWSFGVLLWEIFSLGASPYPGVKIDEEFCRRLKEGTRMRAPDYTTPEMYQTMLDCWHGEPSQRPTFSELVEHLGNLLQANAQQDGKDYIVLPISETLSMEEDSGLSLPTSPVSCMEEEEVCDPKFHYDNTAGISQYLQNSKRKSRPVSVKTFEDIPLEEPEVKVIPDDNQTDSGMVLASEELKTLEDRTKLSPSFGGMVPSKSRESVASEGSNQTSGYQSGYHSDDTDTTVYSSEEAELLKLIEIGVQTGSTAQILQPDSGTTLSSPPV

IC50 (EGFR1 (HER-1)) [nM]	IC50 ([1]; Homo sapiens, A-431, 72 h) [nM]	IC50 ([3]; Homo sapiens, SK-BR-3, 72 h) [nM]	IC50 (VEGFR2 (KDR)) [nM]	IC50 ([4]; Homo sapiens, 72 h) [µM]	SMILES	IC50 ([2]; Homo sapiens, 96 h) [nM]	IC50 ([1]; 72 hours) [nM]	IC50 ([2]; 96 hours) [nM]	IC50 ([3]; 72 hours) [nM]	IC50 ([4]; 72 hours) [µM]
2	15	38	250	8.1	C=CC(=O)Nc1cc2c(Nc3ccc(Br)cc3F)ncnc2cc1OCCNC(=O)NCC [Example 23, N-{4-(4-bromo-2-fluoro-phenylamino)-7-[2-(3-ethyl-ureido)-ethoxy]-quinazolin-6-yl}-acrylamide]	99				
894	1250	1370	140	7.53	C=CC(=O)Nc1cc2c(Nc3ccc(Br)c(F)c3F)ncnc2cc1OCCNC(=O)CCN1CCCCC1 [Example 126, N-{4-(4-bromo-2,3-difluoro-phenylamino)-7-[2-(3-piperidin-1-yl-propionylamino)-ethoxy]-quinazolin-6-yl}-acrylamide]	286				
102	125	5410	84	10	C=CC(=O)Nc1cc2c(Nc3ccc(Br)cc3F)ncnc2cc1OCCNC(=O)C(=O)O [Example 72, {2-[6-acryloylamino-4-(4-bromo-2-fluoro-phenylamino)-quinazolin-7-yloxy]-ethyl}-oxalamic acid]	106				
47	82	240	250	4.58	C=CC(=O)Nc1cc2c(Nc3ccc(Br)cc3F)ncnc2cc1OCC1CCN(C(=O)C(F)(F)F)CC1 [Example 2, N-{4-(4-bromo-2-fluoro-phenylamino)-7-[1-(2,2,2-trifluoro-acetyl)-piperidin-4-ylmethoxy]-quinazolin-6-yl}-acrylamide]	96				
128	114	70	698	10	C=CC(=O)Nc1cc2c(Nc3ccc(Br)cc3F)ncnc2cc1OCCNC(=O)C(C)C [Example 48, N-[4-(4-bromo-2-fluoro-phenylamino)-7-(2-isobutyrylamino-ethoxy)-quinazolin-6-yl]-acrylamide]	697				
18	38	504	165	10	C=CC(=O)Nc1cc2c(Nc3ccc(Br)cc3F)ncnc2cc1OCCNC(=O)C(C)N (stereo not drawn) [Example 173, N-[7-[2-(2-amino-propionylamino)-ethoxy]-4-(4-bromo-2-fluoro-phenylamino)-quinazolin-6-yl]-acrylamide]	213				
19	11	7	87	2.81	C=CC(=O)Nc1cc2c(Nc3ccc(Br)c(Cl)c3F)ncnc2cc1OCCNC(=O)CN(C)C [Example 143, N-{4-(4-bromo-3-chloro-2-fluoro-phenylamino)-7-[2-(2-dimethylamino-acetylamino)-ethoxy]-quinazolin-6-yl}-acrylamide]	239				
44	45	111	198	10	C=CC(=O)Nc1cc2c(Nc3ccc(Br)cc3F)ncnc2cc1OCCNC(=O)CCN(CC)CC [Example 59, N-{4-(4-bromo-2-fluoro-phenylamino)-7-[2-(3-diethylamino-propionylamino)-ethoxy]-quinazolin-6-yl}-acrylamide]	204				
32	37	234	325	10	C=CC(=O)Nc1cc2c(Nc3ccc(Br)cc3F)ncnc2cc1OCCNC(=O)CO [Example 45, N-{4-(4-bromo-2-fluoro-phenylamino)-7-[2-(2-hydroxy-acetylamino)-ethoxy]-quinazolin-6-yl}-acrylamide]	350				
866	951	7800	365	10	CCC(=O)Nc1cc2c(Nc3ccc(Br)cc3F)ncnc2cc1OCCNC(C)=O [Example 77, propionic acid [7-(2-acetylamino-ethoxy)-4-(4-bromo-2-fluoro-phenylamino)-quinazolin-6-yl]-amide]	350				
2	16	21	584	5.79	C=CC(=O)Nc1cc2c(Nc3ccc(Br)cc3F)ncnc2cc1OCCNC(=O)CN(C)C [Example 25, N-[4-(4-bromo-2-fluoro-phenylamino)-7-[2-(2-dimethylamino-acetylamino)-ethoxy]-quinazolin-6-yl]-acrylamide]	786				
20	21	39	823	0.721	C=CC(=O)Nc1cc2c(Nc3cc(Cl)c(Cl)cc3F)ncnc2cc1OCCNC(=O)COC [Example 138, N-{4-(4,5-dichloro-2-fluoro-phenylamino)-7-[2-(2-methoxy-acetylamino)-ethoxy]-quinazolin-6-yl}-acrylamide]	845				
14	15	45	106	10	C=CC(=O)Nc1cc2c(Nc3ccc(Br)c(Cl)c3F)ncnc2cc1OCCNC(=O)CC [Example 142, N-[4-(4-bromo-3-chloro-2-fluoro-phenylamino)-7-(2-propionylamino-ethoxy)-quinazolin-6-yl]-acrylamide]	132				
4	40	75	250	7.6	C=CC(=O)Nc1cc2c(Nc3ccc(Br)cc3F)ncnc2cc1OCCNC(N)=O [Example 24, N-[4-(4-bromo-2-fluoro-phenylamino)-7-(2-ureido-ethoxy)-quinazolin-6-yl]-acrylamide]	90				
36	51	266	45	2.58	C=CC(=O)Nc1cc2c(Nc3ccc(Br)cc3F)ncnc2cc1OCC1CCN(C(=O)NCCC)CC1 [Example 9, 4-[6-acryloylamino-4-(4-bromo-2-fluoro-phenylamino)-quinazolin-7-yloxymethyl]-piperidin-1-carboxylic acid propylamide]	48				
23	76	233	500	9.68	C=CC(=O)Nc1cc2c(Nc3ccc(Br)cc3F)ncnc2cc1OCCNC(=O)C(F)(F)F [Example 28, N-[4-(4-bromo-2-fluoro-phenylamino)-7-[2-(2,2,2-trifluoro-acetylamino)-ethoxy]-quinazolin-6-yl]-acrylamide]	977				
295	310	1280	477	10	C=CC(=O)Nc1cc2c(Nc3ccc(Br)cc3F)ncnc2cc1OCCNc1nccs1 [Example 90, N-{4-(4-bromo-2-fluoro-phenylamino)-7-[2-(thiazol-2-ylamino)-ethoxy]-quinazolin-6-yl}-acrylamide]	589				
6	8	330	55	2.75	C=CC(=O)Nc1cc2c(Nc3ccc(Br)cc3F)ncnc2cc1OCC1CCN(C(=O)CN(C)C)CC1 [Example 10, N-{4-(4-bromo-2-fluoro-phenylamino)-7-[1-(2-dimethylamino-acetyl)-piperidin-4-ylmethoxy]-quinazolin-6-yl}-acrylamide]	49				
19	13	166	155	10	C=CCNC(=O)NCCOc1cc2ncnc(Nc3ccc(Br)cc3F)c2cc1NC(=O)C=C [Example 40, N-[7-[2-(3-allyl-ureido)-ethoxy]-4-(4-bromo-2-fluoro-phenylamino)-quinazolin-6-yl]-acrylamide]	268				
87	91	3300	90	10	C=CC(=O)Nc1cc2c(Nc3cc(OC)c(Cl)cc3OC)ncnc2cc1OCCNC(C)=O [Example 172, N-[7-(2-acetylamino-ethoxy)-4-(4-chloro-2,5-dimethoxy-phenylamino)-quinazolin-6-yl]-acrylamide]	125				
924	1240	1260	945	10	C=CC(=O)Nc1cc2c(Nc3cccc(Cl)c3F)ncnc2cc1OCCNC(=O)CN(C)C [Example 117, N-[4-(3-chloro-2-fluoro-phenylamino)-7-{2-[2-(dimethylamino)-acetamido]-ethoxy}quinazolin-6-yl]-acrylamide]	998				

SMILES	IC50 (EGFR1 (HER-1)) [nM]	IC50 ([1]; Homo sapiens, A-431, 72 h) [nM]	IC50 ([3]; Homo sapiens, SK-BR-3, 72 h) [nM]	IC50 (VEGFR2 (KDR)) [nM]	IC50 ([4]; Homo sapiens, 72 h) [µM]	IC50 ([2]; Homo sapiens, 96 h) [nM]	IC50 ([1]; 72 hours) [nM]	IC50 ([2]; 96 hours) [nM]	IC50 ([3]; 72 hours) [nM]	IC50 ([4]; 72 hours) [µM]
C=CC(=O)Nc1cc2c(Nc3ccc(Br)c(Cl)c3F)ncnc2cc1OCC(C)NC(=O)CN(C)C (stereo not drawn) [Example 157]	88			687			95	752	165	8.36
